{
  "source": "patent US20190382827A1",
  "about": "“USE OF MICROBIAL METABOLITES FOR TREATING DISEASES” (Yeda Research and Development Co. Ltd., priority 2015, published 2019)",
  "key": {"colon explants": {"tested_on": "colon explants", "assay_type": "cell-based, mouse", "protocol": "(F) FACS quantification of propidium iodide positive cells obtained from colon explants incubated for 10 hrs with PBS or taurine.\n(F) FACS quantification of propidium iodide positive cells obtained from colon explants incubated for 10 hrs with either PBS, spermine or histamine."}, "[1]": {"target": "T1, colonic NLRP6 inflammasome (Mus musculus, UniProt Q91WS2)", "T1 construct": "in colon tissue obtained from WT mice drinking taurine for 14 days; from tissue; host or cells: colon of living WT mice (SPF for A4; germ-free for A5)", "T1 sequence (Q91WS2 1-869)": "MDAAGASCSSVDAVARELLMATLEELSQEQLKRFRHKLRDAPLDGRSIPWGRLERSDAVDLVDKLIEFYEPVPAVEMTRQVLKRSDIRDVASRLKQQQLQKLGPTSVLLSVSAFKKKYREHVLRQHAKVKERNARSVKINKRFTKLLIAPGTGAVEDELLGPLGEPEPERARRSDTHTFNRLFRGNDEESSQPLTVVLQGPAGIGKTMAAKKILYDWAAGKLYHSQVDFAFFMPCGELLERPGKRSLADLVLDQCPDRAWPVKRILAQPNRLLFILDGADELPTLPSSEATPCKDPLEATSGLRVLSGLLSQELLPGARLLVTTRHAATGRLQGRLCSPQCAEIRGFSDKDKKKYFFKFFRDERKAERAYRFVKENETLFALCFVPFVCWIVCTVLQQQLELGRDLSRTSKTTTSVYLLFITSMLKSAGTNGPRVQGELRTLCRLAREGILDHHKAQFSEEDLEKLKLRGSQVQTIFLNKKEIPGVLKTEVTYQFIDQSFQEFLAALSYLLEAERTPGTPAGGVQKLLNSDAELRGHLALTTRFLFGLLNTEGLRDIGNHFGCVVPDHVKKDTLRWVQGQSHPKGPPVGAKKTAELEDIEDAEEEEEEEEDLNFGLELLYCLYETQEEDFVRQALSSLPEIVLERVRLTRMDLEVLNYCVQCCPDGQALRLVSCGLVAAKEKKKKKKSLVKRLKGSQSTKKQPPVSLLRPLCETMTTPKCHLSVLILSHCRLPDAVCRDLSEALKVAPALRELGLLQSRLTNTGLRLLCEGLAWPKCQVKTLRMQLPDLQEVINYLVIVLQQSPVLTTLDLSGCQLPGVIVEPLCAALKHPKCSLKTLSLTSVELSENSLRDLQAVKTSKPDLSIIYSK", "test": "Metabolites in the drinking water of mice, colonic inflammasome readouts", "assay_type": "in vivo", "details": "for colonic lamina propria hematopoietic cell populations: WT mice drinking for 14 days, FACS; for colonic caspase-1 activation (activated caspase-1 levels): WT mice, drinking water for 14 days", "from_the_text": "(A, B) Immunoblot analysis (A) and quantification (B) of pro-caspase-1 (p45) and cleaved caspase-1 (p20) in colon tissue obtained from WT mice drinking taurine for 14 days.\n(C) IL-18 production by colon explants obtained from WT mice drinking taurine for 14 days.\n(D) Ang4 expression in sorted epithelial cells (CD45^−EpCAM^+) obtained from WT mice drinking taurine for 14 days.\n(I) IL-18 production by colon explants from WT, Asc^−/− or Nlrp6^−/− mice drinking taurine for 14 days.\n(J, K) Immunoblot analysis (J) and quantification (K) of pro-caspase-1 (p45) and cleaved caspase-1 (p20) in colon tissue obtained from WT mice drinking histamine with or without spermine for 14 days.\nColons were excised and washed thoroughly with PBS, homogenized in RIPA buffer containing protease inhibitors, incubated for 20 min in 4° C. and centrifuged for 20 min, 14,000 rpm at 4° C. Samples were separated on 15% acrylamide gels and transferred onto nitrocellulose membranes. Western blot analysis was performed using anti-caspase 1 p20 polyclonal antibody (Adipogen, AG-20B-0042B-C100) and Goat anti mouse antibody (Jackson ImmunoResearch, 115-035-003). Band density was calculated using ImageJ software.\nConcentrations of IL-18 in the serum or culture supernatants were measured using ELISA. Plates were coated over night with IL-18 (MBL, B004-2), incubated for 4 hours with supernatant or serum. Samples were then washed and plates were incubated with anti-mouse IL-18-biotin antibody (D048-6 MBL) for 1 hour and HRP-Avidin (BioLegend) for 1 hour before quantification.\nTissues were preserved in RNAlater solution (Ambion) and subsequently homogenized in Tri Reagent (Fox et al.). RNA was purified according to the manufacturer's instructions. Two microgram of total RNA was used to generate cDNA (HighCapacity cDNA Reverse Transcription kit; Applied Biosystems). RealTime-PCR was performed using gene-specific primer/probe sets (Applied Biosystems) and Kapa Probe Fast qPCR kit (Kapa Biosystems) on a Viia7 instrument (Applied Biosystems). PCR conditions were 95° C. for 20 s, followed by 40 cycles of 95° C. for 3 s and 60° C. for 30 s. Data were analyzed using the deltaCt method with hprt serving as the reference housekeeping gene.\nTo provide in-vivo validation to the above metabolite activities and to further characterize their effects on the host-microbiome interface, we administered taurine to mice in the drinking water. […] To test this notion directly, either LPS (a known ‘signal I’), taurine, or both were administered to GF WT mice. […] In contrast to taurine, in-vivo administration of histamine and spermine reduced the levels of activated caspase-1 (FIGS. 6J and 6K), while not altering the composition of hematopoietic cells in the lamina propria (FIG. 13D)."}},
  "data": [
    {"compound": "NCCc1c[nH]cn1", "note": "[histamine]", "values": [
      {"measurement": "cell death", "setting": "colon explants", "result": "no change"},
      {"measurement": "colonic lamina propria hematopoietic cell populations", "setting": "[1]", "result": "not altering"},
      {"measurement": "colonic caspase-1 activation (activated caspase-1 levels)", "setting": "[1]", "result": "reduced"}
    ]},
    {"compound": "NCCCNCCCCNCCCN", "note": "[spermine]", "values": [
      {"measurement": "cell death", "setting": "colon explants", "result": "no change"},
      {"measurement": "colonic lamina propria hematopoietic cell populations", "setting": "[1]", "result": "not altering"},
      {"measurement": "colonic caspase-1 activation (activated caspase-1 levels)", "setting": "[1]", "result": "reduced"}
    ]},
    {"compound": "NCCS(=O)(=O)O", "note": "[taurine]", "values": [
      {"measurement": "IL-18 induction", "setting": "[1]; Asc-/- or Nlrp6-/- mice drinking taurine for 14 days", "result": "no IL-18 induction"},
      {"measurement": "colonic lamina propria hematopoietic cell populations", "setting": "[1]", "result": "not accompanied by alterations"},
      {"measurement": "colonic caspase-1 activation (activated caspase-1 levels)", "setting": "[1]", "result": "marked activation"},
      {"measurement": "IL-18 secretion", "setting": "[1]; colon explants from WT mice drinking for 14 days", "result": "marked activation"},
      {"measurement": "IL-18 mRNA levels", "setting": "[1]; colon of WT mice drinking for 14 days", "result": "not affecting"},
      {"measurement": "epithelial Ang4 production", "setting": "[1]; sorted epithelial cells from WT mice drinking for 14 days", "result": "marked activation"}
    ]}
  ]
}
